tested on: human immunodeficiency virus type 1 (HIV-1); assay: microbe, parasite or virus in culture; assay type: cell-based; conditions: Human immunodeficiency virus 1, HeLa, 48 h, HIV-1 luciferase reporter, HeLa cells, 48 hours after infection

`COc1nc2c(cc1CCc1ccc(F)cc1F)c(=O)c(C(=O)O)cn2[C@H](CO)C(C)C` [Example 19, (S)-6-(2,4-difluorophenethyl)-1-(1-hydroxy-3-methylbutan-2-yl)-7-methoxy-4-oxo-1,4-dihydro-1,8-naphthyridine-3-carboxylic acid] and `COc1nc2c(cc1NCc1cc(F)ccc1F)c(=O)c(C(=O)O)cn2[C@H](CO)C(C)C` [Example 20CC, (S)-6-(2,5-difluorobenzylamino)-1-(1-hydroxy-3-methylbutan-2-yl)-7-methoxy-4-oxo-1,4-dihydro-1,8-naphthyridine-3-carboxylic acid] cannot be ordered by EC50: > 100 nM for the first, > 100 nM for the second.

First: COc1nc2c(cc1NCc1ccc(C)cc1)c(=O)c(C(=O)O)cn2[C@H](CO)C(C)C [Example 20A, (S)-1-(1-hydroxy-3-methylbutan-2-yl)-7-methoxy-6-(4-methylbenzylamino)-4-oxo-1,4-dihydro-1,8-naphthyridine-3-carboxylic acid]
Second: COc1nc2c(cc1NCc1ccc(F)cc1)c(=O)c(C(=O)O)cn2[C@H](CO)C(C)C [Example 20C, (S)-6-(4-fluorobenzylamino)-1-(1-hydroxy-3-methylbutan-2-yl)-7-methoxy-4-oxo-1,4-dihydro-1,8-naphthyridine-3-carboxylic acid]
The EC50 of the first is higher: > 100 nM for the first, 10 to 100 nM for the second. The second is the more potent here.

`COc1nc2c(cc1NCc1cccc(Cl)c1F)c(=O)c(C(=O)O)cn2[C@H](CO)C(C)C` [Example 20B, (S)-6-(3-chloro-2-fluorobenzylamino)-1-(1-hydroxy-3-methylbutan-2-yl)-7-methoxy-4-oxo-1,4-dihydro-1,8-naphthyridine-3-carboxylic acid] and `COc1nc2c(cc1NCc1cccc(F)c1F)c(=O)c(C(=O)O)cn2[C@H](CO)C(C)C` [Example 20BB, (S)-6-(2,3-difluorobenzylamino)-1-(1-hydroxy-3-methylbutan-2-yl)-7-methoxy-4-oxo-1,4-dihydro-1,8-naphthyridine-3-carboxylic acid] cannot be ordered by EC50: > 100 nM for the first, > 100 nM for the second.

First: COc1nc2c(cc1NCc1ccccc1F)c(=O)c(C(=O)O)cn2[C@H](CO)C(C)C [Example 20D, (S)-6-(2-fluorobenzylamino)-1-(1-hydroxy-3-methylbutan-2-yl)-7-methoxy-4-oxo-1,4-dihydro-1,8-naphthyridine-3-carboxylic acid]
Second: COc1nc2c(cc1NCc1ccccc1Cl)c(=O)c(C(=O)O)cn2[C@H](CO)C(C)C [Example 20M, (S)-6-(2-chlorobenzylamino)-1-(1-hydroxy-3-methylbutan-2-yl)-7-methoxy-4-oxo-1,4-dihydro-1,8-naphthyridine-3-carboxylic acid]
The EC50 of the first is lower: 10 to 100 nM for the first, > 100 nM for the second. The first is the more potent here.

`COc1nc2c(cc1NCc1cc(F)c(F)c(F)c1)c(=O)c(C(=O)O)cn2[C@H](CO)C(C)C` [Example 20DD, (S)-1-(1-hydroxy-3-methylbutan-2-yl)-7-methoxy-4-oxo-6-(3,4,5-trifluorobenzylamino)-1,4-dihydro-1,8-naphthyridine-3-carboxylic acid] and `COc1nc2c(cc1NCc1cc(F)cc(F)c1F)c(=O)c(C(=O)O)cn2[C@H](CO)C(C)C` [Example 20FF, (S)-1-(1-hydroxy-3-methylbutan-2-yl)-7-methoxy-4-oxo-6-(2,3,5-trifluorobenzylamino)-1,4-dihydro-1,8-naphthyridine-3-carboxylic acid] cannot be ordered by EC50: > 100 nM for the first, > 100 nM for the second.

`COc1nc2c(cc1NCc1cccc(F)c1)c(=O)c(C(=O)O)cn2[C@H](CO)C(C)C` [Example 20E, (S)-6-(3-fluorobenzylamino)-1-(1-hydroxy-3-methylbutan-2-yl)-7-methoxy-4-oxo-1,4-dihydro-1,8-naphthyridine-3-carboxylic acid] and `COc1nc2c(cc1NCc1cccc(Cl)c1)c(=O)c(C(=O)O)cn2[C@H](CO)C(C)C` [Example 20I, (S)-6-(3-chlorobenzylamino)-1-(1-hydroxy-3-methylbutan-2-yl)-7-methoxy-4-oxo-1,4-dihydro-1,8-naphthyridine-3-carboxylic acid] cannot be ordered by EC50: > 100 nM for the first, > 100 nM for the second.

First: COc1nc2c(cc1NCc1ccc(F)c(F)c1F)c(=O)c(C(=O)O)cn2[C@H](CO)C(C)C [Example 20EE, (S)-1-(1-hydroxy-3-methylbutan-2-yl)-7-methoxy-4-oxo-6-(2,3,4-trifluorobenzylamino)-1,4-dihydro-1,8-naphthyridine-3-carboxylic acid]
Second: COc1nc2c(cc1NCc1c(F)ccc(F)c1F)c(=O)c(C(=O)O)cn2[C@H](CO)C(C)C [Example 20GG, (S)-1-(1-hydroxy-3-methylbutan-2-yl)-7-methoxy-4-oxo-6-(2,3,6-trifluorobenzylamino)-1,4-dihydro-1,8-naphthyridine-3-carboxylic acid]
The EC50 of the first is higher: > 100 nM for the first, 10 to 100 nM for the second. The second is the more potent here.

`COc1nc2c(cc1NCc1ccc(F)c(Cl)c1)c(=O)c(C(=O)O)cn2[C@H](CO)C(C)C` [Example 20F, (S)-6-(3-chloro-4-fluorobenzylamino)-1-(1-hydroxy-3-methylbutan-2-yl)-7-methoxy-4-oxo-1,4-dihydro-1,8-naphthyridine-3-carboxylic acid] and `COc1nc2c(cc1NCc1ccc(Cl)c(F)c1)c(=O)c(C(=O)O)cn2[C@H](CO)C(C)C` [Example 20H, (S)-6-(4-chloro-3-fluorobenzylamino)-1-(1-hydroxy-3-methylbutan-2-yl)-7-methoxy-4-oxo-1,4-dihydro-1,8-naphthyridine-3-carboxylic acid] cannot be ordered by EC50: > 100 nM for the first, > 100 nM for the second.

`COc1nc2c(cc1NCCc1cccc(Cl)c1)c(=O)c(C(=O)O)cn2[C@H](CO)C(C)C` [Example 20G, (S)-6-(3-chlorophenethylamino)-1-(1-hydroxy-3-methylbutan-2-yl)-7-methoxy-4-oxo-1,4-dihydro-1,8-naphthyridine-3-carboxylic acid] and `COc1nc2c(cc1NCc1ccc(Cl)cc1)c(=O)c(C(=O)O)cn2[C@H](CO)C(C)C` [Example 20J, (S)-6-(4-chlorobenzylamino)-1-(1-hydroxy-3-methylbutan-2-yl)-7-methoxy-4-oxo-1,4-dihydro-1,8-naphthyridine-3-carboxylic acid] cannot be ordered by EC50: > 100 nM for the first, > 100 nM for the second.

`COc1nc2c(cc1NCc1cc(F)cc(F)c1)c(=O)c(C(=O)O)cn2[C@H](CO)C(C)C` [Example 20HH, (S)-6-(3,5-difluorobenzylamino)-1-(1-hydroxy-3-methylbutan-2-yl)-7-methoxy-4-oxo-1,4-dihydro-1,8-naphthyridine-3-carboxylic acid] and `COc1nc2c(cc1NCc1ccc(F)c(F)c1)c(=O)c(C(=O)O)cn2[C@H](CO)C(C)C` [Example 20N, (S)-6-(3,4-difluorobenzylamino)-1-(1-hydroxy-3-methylbutan-2-yl)-7-methoxy-4-oxo-1,4-dihydro-1,8-naphthyridine-3-carboxylic acid] cannot be ordered by EC50: > 100 nM for the first, > 100 nM for the second.

`COc1nc2c(cc1NCc1cc(F)c(F)cc1F)c(=O)c(C(=O)O)cn2[C@H](CO)C(C)C` [Example 20II, (S)-1-(1-hydroxy-3-methylbutan-2-yl)-7-methoxy-4-oxo-6-(2,4,5-trifluorobenzylamino)-1,4-dihydro-1,8-naphthyridine-3-carboxylic acid] and `COc1nc2c(cc1NCc1cccc(Cl)c1Cl)c(=O)c(C(=O)O)cn2[C@H](CO)C(C)C` [Example 20L, (S)-6-(2,3-dichlorobenzylamino)-1-(1-hydroxy-3-methylbutan-2-yl)-7-methoxy-4-oxo-1,4-dihydro-1,8-naphthyridine-3-carboxylic acid] cannot be ordered by EC50: > 100 nM for the first, > 100 nM for the second.

`COc1nc2c(cc1NC1CCCc3ccccc31)c(=O)c(C(=O)O)cn2[C@H](CO)C(C)C` (stereo partly drawn) [Example 20JJ, 1-((S)-1-hydroxy-3-methylbutan-2-yl)-7-methoxy-4-oxo-6-(1,2,3,4-tetrahydronaphthalen-1-ylamino)-1,4-dihydro-1,8-naphthyridine-3-carboxylic acid] and `COc1nc2c(cc1NCc1ccccc1)c(=O)c(C(=O)O)cn2[C@H](CO)C(C)C` [Example 20O, (S)-6-(benzylamino)-1-(1-hydroxy-3-methylbutan-2-yl)-7-methoxy-4-oxo-1,4-dihydro-1,8-naphthyridine-3-carboxylic acid] cannot be ordered by EC50: > 100 nM for the first, > 100 nM for the second.

`COc1nc2c(cc1NCc1ccc(Cl)c(Cl)c1)c(=O)c(C(=O)O)cn2[C@H](CO)C(C)C` [Example 20K, (S)-6-(3,4-dichlorobenzylamino)-1-(1-hydroxy-3-methylbutan-2-yl)-7-methoxy-4-oxo-1,4-dihydro-1,8-naphthyridine-3-carboxylic acid] and `COc1nc2c(cc1Nc1ccc(Cl)c(F)c1)c(=O)c(C(=O)O)cn2[C@H](CO)C(C)C` [Example 20PP, (S)-6-(4-chloro-3-fluorophenylamino)-1-(1-hydroxy-3-methylbutan-2-yl)-7-methoxy-4-oxo-1,4-dihydro-1,8-naphthyridine-3-carboxylic acid] cannot be ordered by EC50: > 100 nM for the first, > 100 nM for the second.

`COc1nc2c(cc1N[C@@H](C)c1ccc(F)cc1)c(=O)c(C(=O)O)cn2[C@H](CO)C(C)C` [Example 20KK, 6-((S)-1-(4-fluorophenyl)ethylamino)-1-((S)-1-hydroxy-3-methylbutan-2-yl)-7-methoxy-4-oxo-1,4-dihydro-1,8-naphthyridine-3-carboxylic acid] and `COc1nc2c(cc1N[C@H](C)c1ccc(F)cc1)c(=O)c(C(=O)O)cn2[C@H](CO)C(C)C` [Example 20LL, 6-((R)-1-(4-fluorophenyl)ethylamino)-1-((S)-1-hydroxy-3-methylbutan-2-yl)-7-methoxy-4-oxo-1,4-dihydro-1,8-naphthyridine-3-carboxylic acid] cannot be ordered by EC50: > 100 nM for the first, > 100 nM for the second.

`COc1nc2c(cc1NCc1ccc(F)cc1)c(=O)c(C(=O)O)cn2[C@H](CO)C(C)(C)C` [Example 20MM, (S)-6-(4-fluorobenzylamino)-1-(1-hydroxy-3,3-dimethylbutan-2-yl)-7-methoxy-4-oxo-1,4-dihydro-1,8-naphthyridine-3-carboxylic acid] and `COc1nc2c(cc1Nc1cccc(Cl)c1F)c(=O)c(C(=O)O)cn2[C@H](CO)C(C)C` [Example 20OO, (S)-6-(3-chloro-2-fluorophenylamino)-1-(1-hydroxy-3-methylbutan-2-yl)-7-methoxy-4-oxo-1,4-dihydro-1,8-naphthyridine-3-carboxylic acid] cannot be ordered by EC50: > 100 nM for the first, > 100 nM for the second.

— US20110166123A1, “NOVEL COMPOSITIONS AND METHODS OF USE” (priority 2008, published 2011)
